Results published in PubChem BioAssay AID256 (DTP/NCI, 2004).
Where “and” joins values, the source holds several entries; their conditions need not be identical. Identical values can stand only once. Inconclusive results and toxic doses are left out. How the source made its calls: active means survival T/C of 150% or more; inactive means T/C below 125% in these data.

Test system: CD2F1 mice, L1210 leukemia ip, survival T/C
Assay: NCI In Vivo Anticancer Drug Screen. Data for tumor model L1210 Leukemia (intraperitoneal) in CD2F1 (CDF1) mice
Details: endpoint: mean survival time, higher = longer survival
How it was run: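 Vehicle-treated tumor-bearing mice served as controls (C) for compound-treated mice (T). Reported figure is T divided by C.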

[1] = dose: 100.0 mg/kg/injection, schedule: Q04DX003 (ip), vehicle: saline with Tween-80
[2] = dose: 200.0 mg/kg/injection, schedule: Q04DX003 (ip), vehicle: saline with Tween-80
[3] = dose: 100.0 mg/kg/injection, schedule: Q01DX009 (ip), vehicle: saline with Tween-80
[4] = dose: 200.0 mg/kg/injection, schedule: Q01DX009 (ip), vehicle: saline with Tween-80
[5] = dose: 400.0 mg/kg/injection, schedule: Q04DX003 (ip), vehicle: saline with Tween-80
[6] = dose: 100.0 mg/kg/injection, schedule: Q01DX001 (ip), vehicle: saline
[7] = dose: 200.0 mg/kg/injection, schedule: Q01DX001 (ip), vehicle: saline
[8] = dose: 100.0 mg/kg/injection, schedule: Q01DX009 (ip), vehicle: Klucel (hydroxypropylcellulose) (HPC)

Measured: T/C

C(#Cc1ccccc1)C[P+](c1ccccc1)(c1ccccc1)c1ccccc1
inactive: dose: 1.25 mg/kg/injection, schedule: Q01DX009 (ip), vehicle: saline with Tween-80 95 % of control | dose: 2.5 mg/kg/injection, schedule: Q01DX009 (ip), vehicle: saline with Tween-80 101 % of control | dose: 5.0 mg/kg/injection, schedule: Q01DX001 (ip), vehicle: saline with Tween-80 102 % of control | dose: 5.0 mg/kg/injection, schedule: Q01DX009 (ip), vehicle: saline with Tween-80 93 % of control and 103 % of control | dose: 10.0 mg/kg/injection, schedule: Q01DX001 (ip), vehicle: saline with Tween-80 106 % of control | dose: 20.0 mg/kg/injection, schedule: Q01DX001 (ip), vehicle: saline with Tween-80 104 % of control

COc1ccc(/C=C2\SC(=O)NC2=O)cc1
inactive: [1] 102 % of control | [2] 100 % of control

N=c1c2cnn(C3OC(CO)C(O)C3O)c2ncn1N (centres undefined)
inactive: dose: 6.25 mg/kg/injection, schedule: Q01DX009 (ip), vehicle: water 103 % of control | dose: 12.5 mg/kg/injection, schedule: Q01DX009 (ip), vehicle: water 115 % of control and 112 % of control | dose: 50.0 mg/kg/injection, schedule: Q01DX009 (ip), vehicle: water 91 % of control

CC(=O)NCc1cc(CNC(C)=O)c(C)cc1C
inactive: [3] 98 % of control | [1] 95 % of control | [4] 88 % of control | [2] 91 % of control | dose: 400.0 mg/kg/injection, schedule: Q01DX009 (ip), vehicle: saline with Tween-80 95 % of control | [5] 87 % of control

COc1ccc2c(c1O)CNCC2c1ccc(O)cc1O (centres undefined)
inactive: dose: 75.0 mg/kg/injection, schedule: Q01DX001 (ip), vehicle: saline 100 % of control | dose: 150.0 mg/kg/injection, schedule: Q01DX001 (ip), vehicle: saline 98 % of control

c1cc[c]([Ge]([O][Ge]([c]2ccccc2)([c]2ccccc2)[c]2ccccc2)([c]2ccccc2)[c]2ccccc2)cc1
inactive: dose: 50.0 mg/kg/injection, schedule: Q04DX003 (ip), vehicle: Klucel (hydroxypropylcellulose) (HPC) 96 % of control | dose: 100.0 mg/kg/injection, schedule: Q04DX003 (ip), vehicle: Klucel (hydroxypropylcellulose) (HPC) 96 % of control | dose: 200.0 mg/kg/injection, schedule: Q04DX003 (ip), vehicle: Klucel (hydroxypropylcellulose) (HPC) 96 % of control

CC1(C#N)CCC(=O)N1 (centres undefined)
inactive: [6] 95 % of control | [7] 95 % of control | dose: 400.0 mg/kg/injection, schedule: Q01DX001 (ip), vehicle: saline 93 % of control

CN(CCC#N)C(=O)Nc1ccc(Cl)cc1
inactive: dose: 100.0 mg/kg/injection, schedule: Q04DX002 (ip), vehicle: other 106 % of control | dose: 200.0 mg/kg/injection, schedule: Q04DX002 (ip), vehicle: other 101 % of control | dose: 400.0 mg/kg/injection, schedule: Q04DX002 (ip), vehicle: other 106 % of control

CCn1c(=O)c2c(nc(Cl)n2C2OC(COC(C)=O)C(OC(C)=O)C(OC(C)=O)C2NC(C)=O)n(CC)c1=O (centres undefined)
inactive: dose: 12.5 mg/kg/injection, schedule: Q01DX005 (ip), vehicle: distilled water + Tween-80 98 % of control | dose: 25.0 mg/kg/injection, schedule: Q01DX005 (ip), vehicle: distilled water + Tween-80 97 % of control | dose: 50.0 mg/kg/injection, schedule: Q01DX005 (ip), vehicle: distilled water + Tween-80 97 % of control | dose: 100.0 mg/kg/injection, schedule: Q01DX005 (ip), vehicle: distilled water + Tween-80 95 % of control | dose: 200.0 mg/kg/injection, schedule: Q01DX005 (ip), vehicle: distilled water + Tween-80 97 % of control

COc1ccc2[nH]c3c(C)c4cc[n+](C)cc4c(C)c3c2c1
inactive: dose: 3.13 mg/kg/injection, schedule: Q01DX009 (ip), vehicle: saline 120 % of control | dose: 6.25 mg/kg/injection, schedule: Q01DX009 (ip), vehicle: saline with Tween-80 122 % of control | dose: 6.25 mg/kg/injection, schedule: Q01DX009 (ip), vehicle: saline 120 % of control | dose: 6.25 mg/kg/injection, schedule: Q04DX003 (ip), vehicle: saline with Tween-80 105 % of control | dose: 12.5 mg/kg/injection, schedule: Q01DX009 (ip), vehicle: saline with Tween-80 87 % of control | dose: 12.5 mg/kg/injection, schedule: Q01DX009 (ip), vehicle: saline 110 % of control | dose: 12.5 mg/kg/injection, schedule: Q04DX003 (ip), vehicle: saline with Tween-80 108 % of control | dose: 25.0 mg/kg/injection, schedule: Q04DX003 (ip), vehicle: saline sonified 116 % of control | dose: 25.0 mg/kg/injection, schedule: Q04DX003 (ip), vehicle: saline with Tween-80 101 % of control | dose: 37.5 mg/kg/injection, schedule: Q04DX003 (ip), vehicle: saline sonified 86 % of control

C=CCNc1ncnc2c1ncn2C1OC(CO)C(O)C1O (centres undefined)
inactive: dose: 75.0 mg/kg/injection, schedule: Q01DX001 (ip), vehicle: other 112 % of control | dose: 150.0 mg/kg/injection, schedule: Q01DX001 (ip), vehicle: other 103 % of control

O=C(Nc1ccccc1C(F)(F)F)OCCOc1ccccc1Cl
inactive: [8] 103 % of control | dose: 400.0 mg/kg/injection, schedule: Q01DX009 (ip), vehicle: Klucel (hydroxypropylcellulose) (HPC) 89 % of control

CC(=O)N/C(=C/c1ccccc1)C(=O)NC(C)(C)C
inactive: [1] 96 % of control | [2] 99 % of control | [5] 89 % of control

Clc1ccc(-c2nnn3ccccc23)cc1
inactive: dose: 12.5 mg/kg/injection, schedule: Q01DX001 (ip), vehicle: saline with Tween-80 107 % of control | dose: 25.0 mg/kg/injection, schedule: Q01DX001 (ip), vehicle: saline with Tween-80 86 % of control | [6] 97 % of control | [7] 89 % of control

CCCCNCC(C)C(=O)OC (centres undefined)
inactive: [1] 98 % of control | [2] 98 % of control | [5] 102 % of control

CN(Cc1cnc2nc(N)nc(N)c2n1)c1ccc(C(=O)NC(CCC(=O)O)C(=O)NC(CC(=O)O)C(=O)O)cc1 (centres undefined)
inactive: dose: 1.0 mg/kg/injection, schedule: Q01DX009 (ip), vehicle: sodium bicarbonate 100 % of control | dose: 2.0 mg/kg/injection, schedule: Q01DX009 (ip), vehicle: sodium bicarbonate 111 % of control | dose: 5.0 mg/kg/injection, schedule: Q01DX009 (ip), vehicle: sodium bicarbonate 121 % of control | dose: 50.0 mg/kg/injection, schedule: Q01DX009 (ip), vehicle: sodium bicarbonate 105 % of control

COc1ccccc1/C(C)=N\NC(=O)c1ccccc1
inactive: [3] 94 % of control | [1] 94 % of control | [4] 96 % of control | [2] 98 % of control | [5] 104 % of control

O=C(CC(O)(C(F)(F)F)C(F)(F)F)C(=O)c1ccc([N+](=O)[O-])cc1
inactive: [3] 105 % of control | [4] 94 % of control

C=CCOc1ccc(OC)cc1
inactive: [1] 97 % of control | [2] 97 % of control | [5] 92 % of control

CN(C)N=Nc1ccc([N+](=O)[O-])cc1
inactive: dose: 50.0 mg/kg/injection, schedule: Q01DX009 (ip), vehicle: Klucel (hydroxypropylcellulose) (HPC) 98 % of control | dose: 79.0 mg/kg/injection, schedule: Q01DX009 (ip), vehicle: Klucel (hydroxypropylcellulose) (HPC) 102 % of control | [8] 102 % of control | dose: 118.0 mg/kg/injection, schedule: Q01DX009 (ip), vehicle: Klucel (hydroxypropylcellulose) (HPC) 108 % of control | dose: 177.0 mg/kg/injection, schedule: Q01DX009 (ip), vehicle: Klucel (hydroxypropylcellulose) (HPC) 120 % of control | dose: 200.0 mg/kg/injection, schedule: Q01DX009 (ip), vehicle: Klucel (hydroxypropylcellulose) (HPC) 108 % of control

CCCCSCCN
inactive: dose: 25.0 mg/kg/injection, schedule: Q04DX002 (ip), vehicle: saline with Tween-80 94 % of control | dose: 50.0 mg/kg/injection, schedule: Q04DX002 (ip), vehicle: saline with Tween-80 94 % of control | dose: 100.0 mg/kg/injection, schedule: Q04DX002 (ip), vehicle: saline with Tween-80 102 % of control

CCCCCCCCCCCCCCCCCCn1cnc2c(Cl)ncnc21
inactive: dose: 12.5 mg/kg/injection, schedule: Q01DX005 (ip), vehicle: other 87 % of control | dose: 25.0 mg/kg/injection, schedule: Q01DX005 (ip), vehicle: other 91 % of control | dose: 50.0 mg/kg/injection, schedule: Q01DX005 (ip), vehicle: other 92 % of control | dose: 200.0 mg/kg/injection, schedule: Q01DX005 (ip), vehicle: other 86 % of control
